# Source: paper PMC5823406, “Vehicle development, pharmacokinetics and toxicity of the anti-invasive agent 4-fluoro-3’,4’,5’-trimethoxychalcone in rodents” (PLoS ONE, 2018)
# Assays:
# Blood partitioning = format: in vitro ADME; conditions: rat, Sprague-Dawley, authors call the ratio not accurate
# ICR mice = assay: Single-dose PO MTD study; format: in vivo; conditions: for Necropsy: gross findings: 72 h post dosing; for Autonomic / Behavioral / Neurologic: first 60 min; for Weigt increase (%): over 72 h, average±SD
# Method: Male ICR mice (20–26 g), were obtained from BioLASCO Taiwan. Animals were kept in conventional cages with wood chip bedding. Space allocation for 3–5 animals was 30 x 19 x 13 cm. All animals were healthy at the start of the trial and maintained in a well-controlled temperature (20–24°C) and humidity (30%-70%) environment with 12 h light/dark cycles. Free access to a standard lab diet [MFG (Oriental Yeast Co., Ltd., Japan)] and autoclaved tap water were granted.
# A single PO and IP dose progression test was conducted in which animals were dosed at a minimum of 72- or 24-h intervals, respectively. C16 (vehicle: 10% Solutol HS-15 / 90% PEG 600) was administered by oral gavage at 10 mL/kg to randomly assigned groups of 2 male and 2 female mice, or by IP injection at 5 mL/kg to randomly assigned groups of 5 male mice. Animals received an initial dose of 10 mg/kg. If 50% of the animals survived for 72 h (PO) or 30 min (IP), the dose for the next cohort was increased. If one or more animals died, the dose for the next cohort was decreased. The next dose level was determined by the decision scheme in Fig 2.
# Body weights were recorded before dosing and at the 72- (PO) or 24-h (IP) time point. Gross necropsy was performed in all animals without tissue collection.
# dose was increased or decreased in each subsequent test round until the MTD was discovered. Gross necropsy was
# performed in all animals without tissue collection.
smiles,measurement,setting,value
"COc1cc(C(=O)/C=C/c2ccc(F)cc2)cc(OC)c1OC [C16, 4-fluoro-3’,4’,5’-trimethoxychalcone]",blood plasma ratio at 1 μM,Blood partitioning,9.2
same,tolerated dose,"ICR mice; ICR mice, PO oral gavage, single dose",10 to 300 mg/kg
same,Deaths,"ICR mice; PO 10 mg/kg, F",0/2
same,Necropsy: gross findings,"ICR mice; PO 10 mg/kg, F",none
same,Autonomic,"ICR mice; PO 10 mg/kg, F",none
same,Behavioral,"ICR mice; PO 10 mg/kg, F",none
same,Neurologic,"ICR mice; PO 10 mg/kg, F",none
same,Weigt increase (%),"ICR mice; PO 10 mg/kg, F",2±3%
same,Deaths,"ICR mice; PO 10 mg/kg, M",0/2
same,Necropsy: gross findings,"ICR mice; PO 10 mg/kg, M",none
same,Autonomic,"ICR mice; PO 10 mg/kg, M",none
same,Behavioral,"ICR mice; PO 10 mg/kg, M",none
same,Neurologic,"ICR mice; PO 10 mg/kg, M",none
same,Weigt increase (%),"ICR mice; PO 10 mg/kg, M",25±3%
same,Deaths,"ICR mice; PO 30 mg/kg, F",0/2
same,Necropsy: gross findings,"ICR mice; PO 30 mg/kg, F",none
same,Autonomic,"ICR mice; PO 30 mg/kg, F",none
same,Behavioral,"ICR mice; PO 30 mg/kg, F",none
same,Neurologic,"ICR mice; PO 30 mg/kg, F",none
same,Weigt increase (%),"ICR mice; PO 30 mg/kg, F",6±3%
same,Deaths,"ICR mice; PO 30 mg/kg, M",0/2
same,Necropsy: gross findings,"ICR mice; PO 30 mg/kg, M",none
same,Autonomic,"ICR mice; PO 30 mg/kg, M",none
same,Behavioral,"ICR mice; PO 30 mg/kg, M",none
same,Neurologic,"ICR mice; PO 30 mg/kg, M",none
same,Weigt increase (%),"ICR mice; PO 30 mg/kg, M",18±3%
same,Deaths,"ICR mice; PO 100 mg/kg, F",0/2
same,Necropsy: gross findings,"ICR mice; PO 100 mg/kg, F",none
same,Autonomic,"ICR mice; PO 100 mg/kg, F",none
same,Behavioral,"ICR mice; PO 100 mg/kg, F","Yes: B,C"
same,Neurologic,"ICR mice; PO 100 mg/kg, F",none
same,Weigt increase (%),"ICR mice; PO 100 mg/kg, F",8±1%
same,Deaths,"ICR mice; PO 100 mg/kg, M",0/2
same,Necropsy: gross findings,"ICR mice; PO 100 mg/kg, M",none
same,Autonomic,"ICR mice; PO 100 mg/kg, M",none
same,Behavioral,"ICR mice; PO 100 mg/kg, M","Yes: A,C"
same,Neurologic,"ICR mice; PO 100 mg/kg, M",none
same,Weigt increase (%),"ICR mice; PO 100 mg/kg, M",25±1%
same,Deaths,"ICR mice; PO 300 mg/kg, F",0/2
same,Necropsy: gross findings,"ICR mice; PO 300 mg/kg, F",none
same,Autonomic,"ICR mice; PO 300 mg/kg, F",none
same,Behavioral,"ICR mice; PO 300 mg/kg, F",Yes: A
same,Neurologic,"ICR mice; PO 300 mg/kg, F",none
same,Weigt increase (%),"ICR mice; PO 300 mg/kg, F",7±3%
same,Deaths,"ICR mice; PO 300 mg/kg, M",0/2
same,Necropsy: gross findings,"ICR mice; PO 300 mg/kg, M",none
same,Autonomic,"ICR mice; PO 300 mg/kg, M",none
same,Behavioral,"ICR mice; PO 300 mg/kg, M",Yes: A
same,Neurologic,"ICR mice; PO 300 mg/kg, M",none
same,Weigt increase (%),"ICR mice; PO 300 mg/kg, M",17±0%
same,maximum tolerated single dose,"ICR mice; mouse, oral gavage",> 300 mg/kg
